“Also recorded” adds a separate entry of the source. No end group written: not given here.
Tests used:
Fas/FAP-1 binding = assay: In vitro inhibition assay of Fas/FAP-1 binding (GST-Fas fusion protein and in vitro-translated 35S-labeled FAP-1); settings: for binding of in vitro-translated FAP-1 to GST-Fas: FIG. 3A, GST-Fas (191-355), C-terminal 15 amino acids at 1-1000 μM, human PAMP at 1 mM as negative control
Description: HFAP-10 cDNA (Sato, et al. 1995) subcloned into the Bluescript vector pSK-II (Stratagene) was in vitro-translated from an internal methionine codon in the presence of ^35S-L-methionine using a coupled in vitro transcription/translation system (Promega, TNT lysate) and T7 RNA polymerase. The resulting ^35S-labeled protein was incubated with GST-Fas fusion proteins that had been immobilized on […] affinity beads (Pharmacia) in a buffer containing 150 mM NaCl, 50 mM Tris [pH 8.0], 5 mM DTT, 2 mM EDTA, 0.1% NP-40, 1 mM PMSF, 50 μg/ml leupeptin, 1 mM Benzamidine, and 7 μg/ml pepstatin for 16 hours at 4° C. After washing vigorously 4 times in the same buffer, associated proteins were recovered with the glutathione-Sepharose beads by centrifugation, eluted into boiling Laemmli buffer, and analyzed by SDS-PAGE and fluorography.
In vitro-translated [^35]HFAP-1 was purified with a NAP-5 column (Pharmacia) and incubated with 3 μM of GST-fusion proteins for 16 hours at 4° C. After washing 4 times in the binding buffer, radioactivity incorporation was determined in a b counter. The percentage of binding inhibition was calculated as follows: percent inhibition=[radioactivity incorporation using GST-Fas (191-335) with peptides−radioactivity incorporation using GST-Fas (191-320) with peptides]/[radioactivity incorporation using GST-Fas (191-335) without peptides−radioactivity incorporation using GST-Fas (191-320) without peptides]. n=3.

[1] = target: T1, binding of FAP-1 to Fas proteins extracted from Jurkat T-cells (Homo sapiens, UniProt Q12923); assay: Immuno-precipitation of native Fas from Jurkat T-cell extracts with GST-FAP-1, inhibition with tripeptides; settings: FIGS. 4C and 4D, Western analysis with anti-Fas monoclonal antibody
T1 construct: made in house; Fas is endogenous in Jurkat T-cell extract
T1 sequence (Q12923 whole entry): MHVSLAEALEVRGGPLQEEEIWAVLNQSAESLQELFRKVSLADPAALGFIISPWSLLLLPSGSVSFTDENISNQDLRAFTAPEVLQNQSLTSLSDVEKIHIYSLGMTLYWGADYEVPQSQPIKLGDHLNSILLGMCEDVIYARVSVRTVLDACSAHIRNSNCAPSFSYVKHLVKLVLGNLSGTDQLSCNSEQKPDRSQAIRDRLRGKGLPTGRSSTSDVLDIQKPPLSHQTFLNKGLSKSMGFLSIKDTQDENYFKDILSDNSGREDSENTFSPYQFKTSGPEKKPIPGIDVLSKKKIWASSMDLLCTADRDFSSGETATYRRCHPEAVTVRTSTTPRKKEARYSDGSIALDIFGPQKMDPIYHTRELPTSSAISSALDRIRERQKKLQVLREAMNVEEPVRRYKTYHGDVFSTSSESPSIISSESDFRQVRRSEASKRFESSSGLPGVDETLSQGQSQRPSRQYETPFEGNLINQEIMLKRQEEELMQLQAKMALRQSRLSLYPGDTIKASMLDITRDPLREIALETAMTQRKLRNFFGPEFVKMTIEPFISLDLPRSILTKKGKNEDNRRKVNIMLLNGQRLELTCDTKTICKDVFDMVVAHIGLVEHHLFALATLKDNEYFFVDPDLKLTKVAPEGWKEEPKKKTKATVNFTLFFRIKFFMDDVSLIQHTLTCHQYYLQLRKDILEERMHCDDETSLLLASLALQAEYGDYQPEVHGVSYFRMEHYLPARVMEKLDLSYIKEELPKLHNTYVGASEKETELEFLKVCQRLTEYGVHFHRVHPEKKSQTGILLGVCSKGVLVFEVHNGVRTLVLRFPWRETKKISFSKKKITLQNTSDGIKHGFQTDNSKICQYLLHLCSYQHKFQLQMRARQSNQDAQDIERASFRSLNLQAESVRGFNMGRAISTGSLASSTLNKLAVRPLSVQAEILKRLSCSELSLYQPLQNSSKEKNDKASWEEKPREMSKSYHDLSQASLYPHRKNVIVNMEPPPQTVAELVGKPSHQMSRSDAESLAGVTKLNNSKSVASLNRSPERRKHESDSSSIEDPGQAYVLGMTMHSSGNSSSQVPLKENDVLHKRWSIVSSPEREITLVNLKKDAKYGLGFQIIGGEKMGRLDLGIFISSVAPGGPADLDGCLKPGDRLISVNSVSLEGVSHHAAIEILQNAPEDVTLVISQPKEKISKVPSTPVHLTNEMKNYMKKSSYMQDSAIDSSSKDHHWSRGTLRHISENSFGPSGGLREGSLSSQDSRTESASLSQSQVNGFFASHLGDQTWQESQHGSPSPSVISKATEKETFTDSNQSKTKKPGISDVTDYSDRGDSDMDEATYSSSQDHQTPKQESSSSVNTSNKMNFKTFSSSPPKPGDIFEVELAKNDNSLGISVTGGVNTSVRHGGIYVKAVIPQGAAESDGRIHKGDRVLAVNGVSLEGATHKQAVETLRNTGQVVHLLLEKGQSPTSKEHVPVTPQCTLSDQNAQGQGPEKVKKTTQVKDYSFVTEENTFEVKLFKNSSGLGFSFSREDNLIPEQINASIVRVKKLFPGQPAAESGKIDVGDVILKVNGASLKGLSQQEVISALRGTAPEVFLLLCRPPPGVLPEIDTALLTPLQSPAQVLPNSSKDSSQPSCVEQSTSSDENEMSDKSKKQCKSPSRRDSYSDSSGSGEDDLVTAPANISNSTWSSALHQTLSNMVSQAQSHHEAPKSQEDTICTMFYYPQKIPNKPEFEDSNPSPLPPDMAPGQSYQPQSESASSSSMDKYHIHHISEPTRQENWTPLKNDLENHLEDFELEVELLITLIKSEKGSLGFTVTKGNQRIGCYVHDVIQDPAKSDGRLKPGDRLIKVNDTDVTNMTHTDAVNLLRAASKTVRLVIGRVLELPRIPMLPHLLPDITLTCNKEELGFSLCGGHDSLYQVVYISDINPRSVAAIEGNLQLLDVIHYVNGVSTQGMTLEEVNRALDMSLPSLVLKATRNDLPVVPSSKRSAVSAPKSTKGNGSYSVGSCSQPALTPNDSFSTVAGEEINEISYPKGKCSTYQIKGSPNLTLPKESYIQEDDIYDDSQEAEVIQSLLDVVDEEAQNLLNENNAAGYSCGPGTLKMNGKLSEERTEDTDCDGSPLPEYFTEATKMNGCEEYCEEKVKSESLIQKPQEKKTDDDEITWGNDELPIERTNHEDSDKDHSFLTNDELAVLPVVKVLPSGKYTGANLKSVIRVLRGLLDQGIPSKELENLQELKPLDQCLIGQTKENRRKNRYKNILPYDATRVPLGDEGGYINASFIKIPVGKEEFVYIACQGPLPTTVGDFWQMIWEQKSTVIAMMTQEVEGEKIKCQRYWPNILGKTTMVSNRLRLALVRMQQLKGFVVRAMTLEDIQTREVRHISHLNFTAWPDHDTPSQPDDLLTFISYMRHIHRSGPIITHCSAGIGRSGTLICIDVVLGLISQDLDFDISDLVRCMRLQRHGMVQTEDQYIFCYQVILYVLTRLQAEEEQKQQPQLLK
Description: GST-fusion proteins with or without FAP-1 were incubated with cell extracts from Jurkat T-cells expressing Fas. The bound Fas was detected by Western analysis using anti-Fas monoclonal antibody (F22120, Transduction Laboratories). The tripeptides, Ac-SLV and Ac-SLY were used for the inhibition assay of Fas/FAP-1 binding.

[2] = tested on: DLD-1 human colon cancer cells; assay: Microinjection of synthetic tripeptides into DLD-1 cells, Fas-induced apoptosis; format: cell-based; settings: tripeptide 100 mM microinjected into the cytoplasm; CH11 500 ng/ml; 16 to 20 hours postinjection; condensed chromatin, Hoechst 33342
Description: DLD-1 human colon cancer cells were cultured in RPMI 1640 medium containing 10% FCS. For microinjection, cells were plated on CELLocate (Eppendorf) at 1×10^5 cells/2 ml in a 35 mm plastic culture dish and grown for 1 day. Just before microinjection, Fas monoclonal antibodies CH11 (MBL International) was added at the concentration of 500 ng/ml. All microinjection experiments were performed using an automatic microinjection system (Eppendorf transjector 5246, micro-manipulator 5171 and Femtotips) (Pantel, et al. 1995). Synthetic tripeptides were suspended in 0.1% (w/v) FITC-Dextran (Sigma)/K-PBS at the concentration of 100 mM. The samples were microinjected into the cytoplasmic region of DLD-1 cells. Sixteen to 20 hours postinjection, the cells were washed with PBS and stained with 10 μg/ml Hoechst 33342 in PBS. After incubation at 37° C. for 30 minutes, the cells were photographed and the cells showing condensed chromatin were counted as apoptotic.
For each experiment, 25-100 cells were microinjected. Apoptosis of microinjected cells was determined by assessing morphological changes of chromatin using phase contrast and fluorescence microscopy (Wang, et al., 1995; McGahon, et al., 1995). The data are means +/−S.D. for two or three independent determinations.

Sequence of Fas/FAP-1 binding (Q12923 1361-1456 limits assumed): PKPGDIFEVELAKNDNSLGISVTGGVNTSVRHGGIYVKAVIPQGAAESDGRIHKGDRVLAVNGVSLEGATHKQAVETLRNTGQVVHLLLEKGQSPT

Substance	inhibitory effect on the binding of FAP-1 to Fas, truncated C-terminal peptides (Fas/FAP-1 binding; FIG. 3B, acetylated synthetic peptides)	binding activity of FAP-1 to Fas proteins extracted from Jurkat T-cells [1]	induction of apoptosis in microinjected DLD-1 cells [2]	binding of in vitro-translated FAP-1 to GST-Fas (Fas/FAP-1 binding)
Ac-SLV-COOH (Ac-Ser-Leu-Val-OH) [acetylated tripeptide, the three C-terminal amino acids of Fas]	same level of inhibitory effect	abolished in a dose-dependent manner	dramatically induced apoptosis; also recorded: showed condensed chromatin	
Ac-SLY: acetylated synthetic tripeptide SLY used as a non-binding control (Ac-Ser-Leu-Tyr) [reference compound]		not	did not; also recorded: only one cell of the area appeared apoptotic	
DSENSNFRNEIQSLV (Ac-DSENSNFRNEIQSLV) [synthetic 15 amino acids of Fas, synthetic peptide of the C-terminal 15 amino acids of Fas]				dramatically reduced
human PAMP peptide: N-terminal 20 amino acids of proadrenomedullin, negative control (ARLDVASEFRKKWNKWALSR; ends and bridges not checked; UniProt P35318 22-41, looked up) [reference compound]				had no effect

Reference: patent US20030203414A1, “COMPOUNDS THAT INHIBIT THE INTERACTION BETWEEN SIGNAL-TRANSDUCING PROTEINS AND THE GLGF (PDZ/DHR) DOMAIN AND USES THEREOF” (priority 1999, published 2003)
